From the supplement of paper PMC4862054

Key:
Assay in all cases: normalised response (% of control), CellTiter-Glo; higher = more viable cells (100 = DMSO, 0 = benzethonium chloride kill control)
Conditions in all cases: incubation time: 72 h
Hs578T = test system: Hs578T
Procedure, shortened: (§1)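 CellTox Green fluorescence (485/520 nm) and, after 10 min at room temperature, CellTiter-Glo luminescence were read from breast cancer cell lines incubated 72 h in 384-well plates. Cells were seeded as 20 µl suspension onto compound at 5 concentrations in 10-fold steps over a 10,000-fold range chosen per compound. Each plate was normalised to 0.1 % DMSO (100) and a positive kill control (0). Values are normalised signals, one per concentration.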

HCC1143 = test system: HCC1143
Procedure, shortened: as §1

BT-549 = test system: BT-549
Procedure, shortened: as §1

CAL-148 = test system: CAL-148
Procedure, shortened: as §1

SK-BR-3 = test system: SK-BR-3
Procedure, shortened: as §1

MDA-MB-436 = test system: MDA-MB-436
Procedure, shortened: as §1

MCF-10A = test system: MCF-10A
Procedure, shortened: as §1

CAL-120 = test system: CAL-120
Procedure, shortened: as §1

HCC1599 = test system: HCC1599
Procedure, shortened: as §1

BT-474 = test system: BT-474
Procedure, shortened: as §1

MDA-MB-231 = test system: MDA-MB-231
Procedure, shortened: as §1

DU-4475 = test system: DU-4475
Procedure, shortened: as §1

MDA-MB-453 = test system: MDA-MB-453
Procedure, shortened: as §1

HCC1937 = test system: HCC1937
Procedure, shortened: as §1

MDA-MB-468 = test system: MDA-MB-468
Procedure, shortened: as §1

CAL-51 = test system: CAL-51
Procedure, shortened: as §1

MFM-223 = test system: MFM-223
Procedure, shortened: as §1

HDQ-P1 = test system: HDQ-P1
Procedure, shortened: as §1

CAL-85-1 = test system: CAL-85-1
Procedure, shortened: as §1

| SMILES | normalised response (Hs578T) [%] | normalised response (HCC1143) [%] | normalised response (BT-549) [%] | normalised response (CAL-148) [%] | normalised response (SK-BR-3) [%] | normalised response (MDA-MB-436) [%] | normalised response (MCF-10A) [%] | normalised response (CAL-120) [%] | normalised response (HCC1599) [%] | normalised response (BT-474) [%] | normalised response (MDA-MB-231) [%] | normalised response (DU-4475) [%] | normalised response (MDA-MB-453) [%] | normalised response (HCC1937) [%] | normalised response (MDA-MB-468) [%] | normalised response (CAL-51) [%] | normalised response (MFM-223) [%] | normalised response (HDQ-P1) [%] | normalised response (CAL-85-1) [%] |
| --- | --- | --- | --- | --- | --- | --- | --- | --- | --- | --- | --- | --- | --- | --- | --- | --- | --- | --- | --- |
| CO[C@H]1C[C@@H]2CC[C@@H](C)[C@@](O)(O2)C(=O)C(=O)N2CCCC[C@H]2C(=O)O[C@H]([C@H](C)C[C@@H]2CC[C@@H](OCCO)[C@H](OC)C2)CC(=O)[C@H](C)/C=C(\C)[C@@H](O)[C@@H](OC)C(=O)[C@H](C)C[C@H](C)/C=C/C=C/C=C/1C [Everolimus] (0.1 nM) | 89.5 | 92 | 88 | 80.7 | 92 | 90.7 | 96 | 95.9 | 90.5 | 92 | 99.2 | 95 | 95.8 | 88 | 84.8 | 115 | 88.4 | 94.4 | 90 |
| CCCCCCCCc1ccc(CCC(N)(CO)CO)cc1 [Fingolimod] (1 nM) | 100 | 96.8 | 106 | 97.3 | 102 | 92.8 | 103 | 96.4 | 106 | 97.7 | 98 | 101 | 109 | 95.9 | 107 | 97.7 | 103 | 98.6 | 103 |
| CCCCCCCCc1ccc(CCC(N)(CO)CO)cc1 [Fingolimod] (10 nM) | 103 | 99.5 | 98.1 | 94.5 | 105 | 94.5 | 105 | 95.5 | 120 | 99.7 | 99.2 | 103 | 105 | 100 | 94.2 | 125 | 101 | 104 | 111 |
| Cc1ccc(NC(=O)c2ccc(CN3CCN(C)CC3)cc2)cc1Nc1nccc(-c2cccnc2)n1 [Imatinib] (1 nM) | 103 | 100 | 102 | 114 | 107 | 89.9 | 101 | 101 | 101 | 99.2 | 105 | 107 | 119 | 94.5 | 102 | 74.7 | 108 | 102 | 102 |
| Cc1ccc(NC(=O)c2ccc(CN3CCN(C)CC3)cc2)cc1Nc1nccc(-c2cccnc2)n1 [Imatinib] (10 nM) | 107 | 101 | 96.7 | 113 | 109 | 103 | 104 | 102 | 103 | 104 | 99.9 | 109 | 108 | 99.3 | 113 | 107 | 109 | 106 | 96 |
| c1ccc([C@H]2CN3CCSC3=N2)cc1 [Levamisole] (1 nM) | 105 | 103 | 106 | 113 | 109 | 97.4 | 107 | 98.1 | 106 | 106 | 107 | 105 | 112 | 99.4 | 112 | 69.9 | 106 | 104 | 99.9 |
| c1ccc([C@H]2CN3CCSC3=N2)cc1 [Levamisole] (10 nM) | 105 | 99.5 | 99 | 114 | 95.1 | 106 | 110 | 100 | 99.5 | 106 | 99.3 | 103 | 117 | 103 | 102 | 78.9 | 110 | 97 | 95.6 |
| Nc1nc(OCc2cc(Br)cs2)c2[nH]cnc2n1 [Lomeguatrib] (1 nM) | 99 | 97.6 | 103 | 92.5 | 102 | 110 | 108 | 101 | 90.9 | 100 | 101 | 99.2 | 97.6 | 103 | 96.2 | 118 | 102 | 104 | 99.9 |
| Nc1nc(OCc2cc(Br)cs2)c2[nH]cnc2n1 [Lomeguatrib] (10 nM) | 105 | 101 | 93.5 | 105 | 105 | 103 | 109 | 101 | 91.8 | 104 | 98.5 | 104 | 97.3 | 98.9 | 101 | 69.8 | 97.4 | 104 | 94.2 |
| COc1ccccc1S(=O)(=O)Nc1ccc2c(c1)CN(C)C(=O)N2 [PFI-1] (1 nM) | 107 | 94.2 | 96.5 | 107 | 104 | 94.8 | 112 | 100 | 80.6 | 93.7 | 103 | 104 | 105 | 99.2 | 90.8 | 77.9 | 101 | 96 | 98 |
| COc1ccccc1S(=O)(=O)Nc1ccc2c(c1)CN(C)C(=O)N2 [PFI-1] (10 nM) | 106 | 102 | 90.1 | 108 | 88.4 | 97.1 | 103 | 91.8 | 88.6 | 99.7 | 103 | 109 | 97.2 | 94.5 | 95.3 | 102 | 109 | 96 | 94.6 |
| C/C(=C\c1csc(C)n1)[C@@H]1C[C@@H]2O[C@]2(C)CCC[C@H](C)[C@H](O)[C@@H](C)C(=O)C(C)(C)[C@@H](O)CC(=O)O1 [Patupilone] (0.1 nM) | 99.3 | 97.6 | 98.7 | 113 | 98 | 98 | 102 | 104 | 108 | 110 | 101 | 106 | 101 | 98 | 107 | 81.4 | 103 | 105 | 104 |
| NS(=O)(=O)OC[C@@H]1C[C@@H](n2ccc3c(N[C@H]4CCc5ccccc54)ncnc32)C[C@@H]1O [Pevonedistat] (1 nM) | 99.7 | 105 | 99.2 | 106 | 107 | 99.7 | 115 | 100 | 95.9 | 93.6 | 102 | 94.7 | 110 | 100 | 96.7 | 79.2 | 102 | 100 | 93.9 |
| NS(=O)(=O)OC[C@@H]1C[C@@H](n2ccc3c(N[C@H]4CCc5ccccc54)ncnc32)C[C@@H]1O [Pevonedistat] (10 nM) | 103 | 102 | 94 | 109 | 93.5 | 96.6 | 112 | 97.8 | 97.1 | 114 | 107 | 109 | 100 | 99.1 | 97.2 | 77 | 102 | 95.9 | 100 |
| CNNCc1ccc(C(=O)NC(C)C)cc1 [Procarbazine] (1 nM) | 108 | 112 | 111 | 104 | 112 | 101 | 111 | 101 | 109 | 102 | 104 | 103 | 108 | 111 | 104 | 88.6 | 105 | 104 | 103 |
| CNNCc1ccc(C(=O)NC(C)C)cc1 [Procarbazine] (10 nM) | 101 | 105 | 100 | 108 | 109 | 97.2 | 103 | 102 | 91.3 | 97.9 | 106 | 107 | 95.8 | 107 | 113 | 66.9 | 104 | 109 | 99 |
| CN(C)C[C@@H]1CCn2cc(c3ccccc32)C2=C(C(=O)NC2=O)c2cn(c3ccccc23)CCO1 [Ruboxistaurin] (1 nM) | 96.7 | 94.4 | 96.9 | 97.7 | 98.4 | 105 | 106 | 90.3 | 99.2 | 95.3 | 97.9 | 99.8 | 98.9 | 94.6 | 106 | 129 | 98.6 | 101 | 96.7 |
| CN(C)C[C@@H]1CCn2cc(c3ccccc32)C2=C(C(=O)NC2=O)c2cn(c3ccccc23)CCO1 [Ruboxistaurin] (10 nM) | 98.1 | 99.9 | 95.5 | 96.1 | 116 | 101 | 98.3 | 94.3 | 104 | 99.1 | 94 | 95.3 | 100 | 99.5 | 103 | 91.4 | 94.6 | 101 | 95.6 |
| CN1CCN(CCOc2cc(OC3CCOCC3)c3c(Nc4c(Cl)ccc5c4OCO5)ncnc3c2)CC1 [Saracatinib] (1 nM) | 97.4 | 89.2 | 105 | 97.9 | 98.6 | 103 | 96.5 | 94.4 | 116 | 94.4 | 94.6 | 102 | 103 | 95.7 | 99.2 | 116 | 97.5 | 94.5 | 105 |
| CN1CCN(CCOc2cc(OC3CCOCC3)c3c(Nc4c(Cl)ccc5c4OCO5)ncnc3c2)CC1 [Saracatinib] (10 nM) | 101 | 94.4 | 103 | 91.6 | 113 | 94.8 | 97.8 | 93.1 | 103 | 93.5 | 92.7 | 103 | 107 | 97.6 | 93.2 | 129 | 96 | 118 | 104 |
| Cn1cncc1[C@@](N)(c1ccc(Cl)cc1)c1ccc2c(c1)c(-c1cccc(Cl)c1)cc(=O)n2C [Tipifarnib] (1 nM) | 96.2 | 94.6 | 102 | 97.3 | 102 | 88 | 94.5 | 92.2 | 93.1 | 89.8 | 99.5 | 103 | 109 | 93.4 | 93.4 | 90.2 | 96.3 | 93.5 | 102 |
